In patent US9469650B2, “Melampomagnolide B derivatives” (BOARD OF TRUSTEES OF THE UNIVERSITY OF ARKANSAS, priority 2013, dated 2016):
Like-named read-outs stand apart in the source and are kept apart here.

What was measured:
[1] = test system: 786-0; test: panel of 60 human tumor cell lines, growth inhibition (Renal Cancer); conditions: 786-0
[2] = test system: HCC-2998; test: panel of 60 human tumor cell lines, growth inhibition (Colon Cancer); conditions: HCC-2998
[3] = test system: HL-60(TB)
[4] = test system: IGROV1; test: panel of 60 human tumor cell lines, growth inhibition (Ovarian Cancer); conditions: IGROVI
[5] = test system: U251; test: panel of 60 human tumor cell lines, growth inhibition (CNS Cancer); conditions: U251
[6] = test system: SNB-19; test: as above; conditions: SNB-19
[7] = test system: NCI-H522; test: panel of 60 human tumor cell lines, growth inhibition (Non-Small Cell Lung Cancer); conditions: NCI-H522
[8] = test system: DU-145; test: panel of 60 human tumor cell lines, growth inhibition (Prostate Cancer); conditions: DU-145
[9] = test system: HS 578T; test: panel of 60 human tumor cell lines, growth inhibition (Breast Cancer); conditions: HS 578T
[10] = test system: SF-295; test: panel of 60 human tumor cell lines, growth inhibition (CNS Cancer); conditions: SF-295
[11] = test system: NCI-H226; test: panel of 60 human tumor cell lines, growth inhibition (Non-Small Cell Lung Cancer); conditions: NCI-H226
[12] = test system: BT-549; test: panel of 60 human tumor cell lines, growth inhibition (Breast Cancer); conditions: BT-549
[13] = test system: TK-10; test: panel of 60 human tumor cell lines, growth inhibition (Renal Cancer); conditions: TK-10
[14] = test system: SK-OV-3; test: panel of 60 human tumor cell lines, growth inhibition (Ovarian Cancer); conditions: SK-OV-3
[15] = test system: NCI-H460; test: panel of 60 human tumor cell lines, growth inhibition (Non-Small Cell Lung Cancer); conditions: NCI-H460
[16] = test system: NCI-H23; test: as above; conditions: NCI-H23
[17] = test system: ACHN; test: panel of 60 human tumor cell lines, growth inhibition (Renal Cancer)
[18] = test system: HOP-62; test: panel of 60 human tumor cell lines, growth inhibition (Non-Small Cell Lung Cancer); conditions: HOP-62
[19] = test system: HT29; test: panel of 60 human tumor cell lines, growth inhibition (Colon Cancer); conditions: HT29

SMILES: C=C1C(=O)O[C@H]2[C@H]1CC/C(COC(=O)CCC(=O)N1CCC(C)CC1)=C\CC[C@@]1(C)O[C@@H]21 [JVM 2-70]
- Percent Growth ([1]; Log10 Concentration −4.0): −78%
- Percent Growth ([1]; Log10 Concentration −5.0): 39%
- Percent Growth ([1]; Log10 Concentration −6.0): 100%
- Percent Growth ([1]; Log10 Concentration −7.0): 98%
- Percent Growth ([1]; Log10 Concentration −8.0): 90%
- GI50 ([1]; NCI five dose): 6.64 µM
- TGI ([1]; NCI five dose): 2.17E−5
- Percent Growth ([2]; Log10 Concentration −4.0): −80%
- Percent Growth ([2]; Log10 Concentration −5.0): 59%
- Percent Growth ([2]; Log10 Concentration −6.0): 110%
- Percent Growth ([2]; Log10 Concentration −7.0): 103%
- Percent Growth ([2]; Log10 Concentration −8.0): 106%
- GI50 ([2]; NCI five dose): 11.5 µM
- TGI ([2]; NCI five dose): 2.65E−5
- Percent Growth ([3]; Log10 Concentration −4.0): −59%
- Percent Growth ([3]; Log10 Concentration −5.0): −12%
- Percent Growth ([3]; Log10 Concentration −6.0): 112%
- Percent Growth ([3]; Log10 Concentration −7.0): 111%
- Percent Growth ([3]; Log10 Concentration −8.0): 110%
- GI50 ([3]; NCI five dose): 3.16 µM
- TGI ([3]; NCI five dose): 7.96E−6
- CC50 ([3]; read-out: LC50, NCI five dose): 63.1 µM
- Percent Growth ([4]; Log10 Concentration −4.0): −52%
- Percent Growth ([4]; Log10 Concentration −5.0): 19%
- Percent Growth ([4]; Log10 Concentration −6.0): 104%
- Percent Growth ([4]; Log10 Concentration −7.0): 118%
- Percent Growth ([4]; Log10 Concentration −8.0): 109%
- GI50 ([4]; NCI five dose): 4.32 µM
- TGI ([4]; NCI five dose): 1.85E−5
- Percent Growth ([5]; Log10 Concentration −4.0): −90%
- Percent Growth ([5]; Log10 Concentration −5.0): 90%
- Percent Growth ([5]; Log10 Concentration −6.0): 99%
- Percent Growth ([5]; Log10 Concentration −7.0): 95%
- Percent Growth ([5]; Log10 Concentration −8.0): 95%
- GI50 ([5]; NCI five dose): 16.7 µM
- TGI ([5]; NCI five dose): 3.16E−5
- Percent Growth ([6]; Log10 Concentration −4.0): −80%
- Percent Growth ([6]; Log10 Concentration −5.0): 73%
- Percent Growth ([6]; Log10 Concentration −6.0): 95%
- Percent Growth ([6]; Log10 Concentration −7.0): 96%
- Percent Growth ([6]; Log10 Concentration −8.0): 95%
- GI50 ([6]; NCI five dose): 14 µM
- TGI ([6]; NCI five dose): 2.98E−5
- Percent Growth ([7]; Log10 Concentration −4.0): −71%
- Percent Growth ([7]; Log10 Concentration −5.0): −87%
- Percent Growth ([7]; Log10 Concentration −6.0): 80%
- Percent Growth ([7]; Log10 Concentration −7.0): 96%
- Percent Growth ([7]; Log10 Concentration −8.0): 93%
- GI50 ([7]; NCI five dose): 1500 nM
- TGI ([7]; NCI five dose): 3.00E−6
- Percent Growth ([8]; Log10 Concentration −4.0): −89%
- Percent Growth ([8]; Log10 Concentration −5.0): 26%
- Percent Growth ([8]; Log10 Concentration −6.0): 95%
- Percent Growth ([8]; Log10 Concentration −7.0): 106%
- Percent Growth ([8]; Log10 Concentration −8.0): 107%
- GI50 ([8]; NCI five dose): 4.44 µM
- TGI ([8]; NCI five dose): 1.68E−5
- Percent Growth ([9]; Log10 Concentration −4.0): 6%
- Percent Growth ([9]; Log10 Concentration −5.0): 70%
- Percent Growth ([9]; Log10 Concentration −6.0): 86%
- Percent Growth ([9]; Log10 Concentration −7.0): 92%
- Percent Growth ([9]; Log10 Concentration −8.0): 92%
- GI50 ([9]; NCI five dose): 20.4 µM
- TGI ([9]; NCI five dose): >1.00E−4
- Percent Growth ([10]; Log10 Concentration −4.0): −72%
- Percent Growth ([10]; Log10 Concentration −5.0): 74%
- Percent Growth ([10]; Log10 Concentration −6.0): 93%
- Percent Growth ([10]; Log10 Concentration −7.0): 93%
- Percent Growth ([10]; Log10 Concentration −8.0): 89%
- GI50 ([10]; NCI five dose): 14.7 µM
- TGI ([10]; NCI five dose): 3.23E−5
- Percent Growth ([11]; Log10 Concentration −4.0): −59%
- Percent Growth ([11]; Log10 Concentration −5.0): 19%
- Percent Growth ([11]; Log10 Concentration −6.0): 87%
- Percent Growth ([11]; Log10 Concentration −7.0): 93%
- Percent Growth ([11]; Log10 Concentration −8.0): 92%
- GI50 ([11]; NCI five dose): 3.51 µM
- TGI ([11]; NCI five dose): 1.75E−5
- Percent Growth ([12]; Log10 Concentration −4.0): −96%
- Percent Growth ([12]; Log10 Concentration −5.0): −10%
- Percent Growth ([12]; Log10 Concentration −6.0): 71%
- Percent Growth ([12]; Log10 Concentration −7.0): 86%
- Percent Growth ([12]; Log10 Concentration −8.0): 81%
- GI50 ([12]; NCI five dose): 1820 nM
- TGI ([12]; NCI five dose): 7.55E−6
- Percent Growth ([13]; Log10 Concentration −4.0): −97%
- Percent Growth ([13]; Log10 Concentration −5.0): 9%
- Percent Growth ([13]; Log10 Concentration −6.0): 109%
- Percent Growth ([13]; Log10 Concentration −7.0): 106%
- Percent Growth ([13]; Log10 Concentration −8.0): 97%
- GI50 ([13]; NCI five dose): 3.9 µM
- TGI ([13]; NCI five dose): 1.23E−5
- Percent Growth ([14]; Log10 Concentration −4.0): −10%
- Percent Growth ([14]; Log10 Concentration −5.0): 95%
- Percent Growth ([14]; Log10 Concentration −6.0): 99%
- Percent Growth ([14]; Log10 Concentration −7.0): 101%
- Percent Growth ([14]; Log10 Concentration −8.0): 92%
- GI50 ([14]; NCI five dose): 26.8 µM
- TGI ([14]; NCI five dose): 8.06E−5
- Percent Growth ([15]; Log10 Concentration −4.0): −57%
- Percent Growth ([15]; Log10 Concentration −5.0): 77%
- Percent Growth ([15]; Log10 Concentration −6.0): 99%
- Percent Growth ([15]; Log10 Concentration −7.0): 101%
- Percent Growth ([15]; Log10 Concentration −8.0): 100%
- GI50 ([15]; NCI five dose): 16 µM
- TGI ([15]; NCI five dose): 3.76E−5
- Percent Growth ([16]; Log10 Concentration −4.0): −70%
- Percent Growth ([16]; Log10 Concentration −5.0): 33%
- Percent Growth ([16]; Log10 Concentration −6.0): 94%
- Percent Growth ([16]; Log10 Concentration −7.0): 101%
- Percent Growth ([16]; Log10 Concentration −8.0): 95%
- GI50 ([16]; NCI five dose): 5.24 µM
- TGI ([16]; NCI five dose): 2.09E−5
- Percent Growth ([17]; Log10 Concentration −4.0): −79%
- Percent Growth ([17]; Log10 Concentration −5.0): 2%
- Percent Growth ([17]; Log10 Concentration −6.0): 85%
- Percent Growth ([17]; Log10 Concentration −7.0): 102%
- Percent Growth ([17]; Log10 Concentration −8.0): 98%
- GI50 ([17]; NCI five dose): 2640 nM
- TGI ([17]; NCI five dose): 1.05E−5
- Percent Growth ([18]; Log10 Concentration −4.0): −68%
- Percent Growth ([18]; Log10 Concentration −5.0): 78%
- Percent Growth ([18]; Log10 Concentration −6.0): 91%
- Percent Growth ([18]; Log10 Concentration −7.0): 92%
- Percent Growth ([18]; Log10 Concentration −8.0): 86%
- GI50 ([18]; NCI five dose): 15.5 µM
- TGI ([18]; NCI five dose): 3.41E−5
- Percent Growth ([19]; Log10 Concentration −4.0): −87%
- Percent Growth ([19]; Log10 Concentration −5.0): 19%
- Percent Growth ([19]; Log10 Concentration −6.0): 103%
- Percent Growth ([19]; Log10 Concentration −7.0): 106%
- Percent Growth ([19]; Log10 Concentration −8.0): 99%
- GI50 ([19]; NCI five dose): 4.28 µM
- TGI ([19]; NCI five dose): 1.51E−5
